Experiments:
[1] = test system: SHC; assay: SHC tyrosine phosphorylation in Rat-1/EP-R cells; type: cell-based; settings: tyrphostin pretreatment (AG1478 250 nM, AG1295 1 μM), FIG. 1e
[2] = test system: proHB-EGF; assay: Flow cytometry of cell surface proHB-EGF in non-transfected COS-7 cells; type: cell-based; settings: within 10 minutes, FIG. 4c
[3] = test system: EGFR; assay: EGFR tyrosine phosphorylation in PC-3 prostate carcinoma cells; type: cell-based, human; settings: PC-3 cells starved for 36 hours; 3 minutes stimulation; FIG. 4f
[4] = test system: human EGFR (HERc); assay: Intercellular transactivation: HERc tyrosine phosphorylation in Rat-1/M1R + Rat-1/HERc co-culture; type: cell-based; settings: carbachol 1 mM; for effect on EGFR (HERc) tyrosine phosphorylation in response to M1R agonist carbachol: confluent co-cultures of Rat-1/M1R and Rat-1/HERc cells, preincubation, FIG. 2b, 2c
[5] = test system: proHB-EGF; type: cell-based

Q: For Cc1cc2ncc(-c3ccccc3)nc2cc1C [AG1295], which “effect on SHC tyrosine phosphorylation following thrombin stimulation” value [1] is on record?
A: remained unaffected

Q: What does the source list for “EGF: epidermal growth factor, EGFR ligand used as control stimulus (NSDSECPLSHDGYCLHDGVCMYIEALDKYACNCVVGYIGERCQYRDLKWWELR; UniProt P01133 971-1023, looked up)”?
A: content of cell surface proHB-EGF after addition of agonist [2]: no effect; induction of tyrosine phosphorylation of the EGFR by agonist [3]: induce tyrosine phosphorylation

Q: How did the “effect on SHC tyrosine phosphorylation following thrombin stimulation” value [1] turn out when COc1cc2ncnc(Nc3cccc(Cl)c3)c2cc1OC [AG1478] was run?
A: completely blocked

Q: How did the “effect on EGFR (HERc) tyrosine phosphorylation in response to M1R agonist carbachol” value [4] turn out when [O-][Cl+2]([O-])O [chlorate] was run?
A: completely inhibited

Q: What does the source list for CCCCCCCCCCCCCC(=O)O[C@@H]1[C@@H](C)[C@@]2(O)[C@@H](C=C(CO)C[C@]3(O)C(=O)C(C)=C[C@@H]23)[C@@H]2C(C)(C)[C@]12OC(C)=O [TPA, tetradecanoyl-phorbol-13-acetate]?
A: content of cell surface proHB-EGF after addition of agonist [2]: reduced; induction of tyrosine phosphorylation of the EGFR by agonist [3]: induce tyrosine phosphorylation

Q: heparitinase was tested. Which “effect on EGFR (HERc) tyrosine phosphorylation in response to M1R agonist carbachol” value [4] did it give?
A: completely inhibited

Q: lysophosphatidic acid [LPA] was tested. Which “content of cell surface proHB-EGF after addition of agonist” value [2] did it give?
A: reduced

Q: With C[N+](C)(C)CCOC(N)=O [carbachol] as the molecule, how does the “proteolytic processing of membrane-anchored proHB-EGF upon agonist stimulation” value [5] read?
A: rapid breakdown

Q: And the “induction of tyrosine phosphorylation of HERc by agonist” value ([4]; Rat-1/M1R + Rat-1/HERc co-culture, FIG. 2a)?
A: rapidly induced tyrosine phosphorylation

From US7632645B1, “EGF receptor transactivation by G-protein-coupled receptors requires metalloproteinase cleavage of proHB-EGF” (Max-Planck-Gesellschaft zur forderung der Wissenschaften …, priority 1999, dated 2009)
